Experimental data taken from patent US7132546B2, “Aniline derivatives or salts thereof and cytokine production inhibitors containing the same” (Ishihara Sangyo Kaisha, Ltd., priority 2000, dated 2006).

How the values were obtained:
[1] = test system: interferon γ (IFN-γ) production; assay: Cytokine production inhibitory effect: IFN-γ production by murine spleen cells treated with anti-mouse CD3 antibody and IL-2 (ELISA); type: cell-based, Balb/c mice; conditions: test compound 100 ppm, anti-CD3 antibody + IL-2, 40 to 48 hours, read-out: IFN-γ production inhibitory ratio (%)
[2] = test system: interleukin 5 (IL-5) production; assay: Cytokine production inhibitory effect: IL-5 production by murine spleen cells treated with anti-mouse CD3 antibody and IL-2 (ELISA); type: cell-based, Balb/c mice; conditions: test compound 100 ppm, anti-CD3 antibody + IL-2, 40 to 48 hours, read-out: IL-5 production inhibitory ratio (%)

| melting point [°C] | Compound | inhibition at 100 ppm [1] [%] | inhibition at 100 ppm [2] [%] |
| --- | --- | --- | --- |
| 191 to 195 | O=C(Nc1ccc(Oc2ncc(C(F)(F)F)cc2Cl)cc1)c1cc([N+](=O)[O-])ccc1Br [compound 99] | 89 | 100 |
| 154 to 158 | COC(=O)c1cc(Oc2ncc(C(F)(F)F)cc2Cl)ccc1NC(=O)c1cc([N+](=O)[O-])ccc1Cl [compound 100] | 93 | 92 |
| 240 to 245 | O=C(Nc1ccc(Oc2ncc(C(F)(F)F)cc2Cl)cc1C(=O)O)c1cc([N+](=O)[O-])ccc1Cl [compound 101] | 100 | 100 |
| 296 to 298 | Cc1cc(Oc2ncc(C(F)(F)F)cc2Cl)c(C)cc1NC(=O)c1cc([N+](=O)[O-])ccc1Cl [compound 105] | 25 | 55 |
| 226 to 229 | COC(=O)c1cc(NC(=O)c2cc([N+](=O)[O-])ccc2Cl)ccc1Oc1ncc(C(F)(F)F)cc1Cl [compound 107] | 97 | 99 |
| 190 to 193 | COc1cc(NC(=O)c2cc([N+](=O)[O-])ccc2Cl)ccc1Oc1ncc(C(F)(F)F)cc1Cl [compound 109] | 95 | 100 |
| 175 to 180 | O=C(Nc1ccc(OCC23CC4CC(CC(C4)C2)C3)cc1)c1cc([N+](=O)[O-])ccc1Cl [compound 110] | 100 | 99 |
| 178 to 180 | O=C(Nc1ccc(OC2C3CC4CC(C3)CC2C4)cc1)c1cc([N+](=O)[O-])ccc1Cl (stereo not drawn) [compound 111] | 99 | 99 |
| 189 to 191 | O=C(Nc1cc(Cl)c(Oc2ncc(C(F)(F)F)cc2Cl)c(Cl)c1)c1cc([N+](=O)[O-])ccc1Cl [compound 112] | 100 | 100 |
| 222 to 225 | O=C(Nc1ccc(Oc2ncc(C(F)(F)F)cc2Cl)c(Cl)c1)c1cc([N+](=O)[O-])ccc1Cl [compound 113] | 97 | 96 |
| 239 to 244 | NC(=O)c1cc(NC(=O)c2cc([N+](=O)[O-])ccc2Cl)ccc1Oc1ncc(C(F)(F)F)cc1Cl [compound 116] | 99 | 100 |
| 233 to 236 | Cc1cc(NS(=O)(=O)c2cc([N+](=O)[O-])ccc2Cl)ccc1Oc1ncc(C(F)(F)F)cc1Cl [compound 117] | 100 | 100 |
| 221 to 223 | Cc1cc(NC(=O)c2cc(C#N)ccc2Cl)ccc1Oc1ncc(C(F)(F)F)cc1Cl [compound 118] | 47 | 78 |
| 179 to 181 | Cc1cc(NC(=O)c2cc([N+](=O)[O-])ccc2F)ccc1Oc1ncc(C(F)(F)F)cc1Cl [compound 119] | 99 | 100 |
| 246 to 248 | Cc1cc(NC(=O)c2cc([N+](=O)[O-])ccc2Br)ccc1Oc1ncc(C(F)(F)F)cc1Cl [compound 120] | 35 | 84 |
| 235 to 237 | Nc1cc(NC(=O)c2cc([N+](=O)[O-])ccc2Cl)ccc1Oc1ncc(C(F)(F)F)cc1Cl [compound 121] | 100 | 97 |
| 194 to 198 | N#Cc1cc(NC(=O)c2cc([N+](=O)[O-])ccc2Cl)ccc1Oc1ncc(C(F)(F)F)cc1Cl [compound 122] | 100 | 100 |
| 203 to 205 | CC(=O)Nc1cc(NC(=O)c2cc([N+](=O)[O-])ccc2Cl)ccc1Oc1ncc(C(F)(F)F)cc1Cl [compound 125] | 100 | 100 |
| 194 to 197 | O=C(Nc1ccc(Oc2ncc(C(F)(F)F)cc2Cl)c(O)c1)c1cc([N+](=O)[O-])ccc1Cl [compound 126] | 100 | 100 |

| melting point [°C] | Compound | inhibition at 100 ppm [1] [%] | inhibition at 100 ppm [2] [%] |
| --- | --- | --- | --- |
| 208 to 213 | CN(C)c1cc(NC(=O)c2cc([N+](=O)[O-])ccc2Cl)ccc1Oc1ncc(C(F)(F)F)cc1Cl [compound 128] | 93 | 96 |
| 273 to 276 | CN(c1cc(NC(=O)c2cc([N+](=O)[O-])ccc2Cl)ccc1O)c1ncc(C(F)(F)F)cc1Cl [compound 129] | 67 | 86 |
| 235 to 237 | O=C(Nc1ccc(Oc2ncc(C(F)(F)F)cc2Cl)c(N2CCCC2)c1)c1cc([N+](=O)[O-])ccc1Cl [compound 130] | 99 | 100 |
| 194 to 198 | O=C(Nc1ccc(Oc2ncc(C(F)(F)F)cc2Cl)c(N2CCCCC2)c1)c1cc([N+](=O)[O-])ccc1Cl [compound 131] | 100 | 100 |
| 215 to 218 | O=C(Nc1ccc(Nc2ncc(C(F)(F)F)cc2Cl)cc1)c1cc([N+](=O)[O-])ccc1Cl [compound 132] | 100 | 99 |
| 212 to 216 | CN(c1ccc(NC(=O)c2cc([N+](=O)[O-])ccc2Cl)cc1)c1ncc(C(F)(F)F)cc1Cl [compound 133] | 100 | 99 |
| 178 to 181 | O=C(Nc1ccc(S(=O)(=O)Nc2ccccn2)cc1)c1cc([N+](=O)[O-])ccc1Cl [compound 136] | 100 | 98 |
| 252 to 258 | O=C(Nc1ccc(S(=O)(=O)Nc2ncccn2)cc1)c1cc([N+](=O)[O-])ccc1Cl [compound 137] | 98 | 98 |
| 146 to 150 | O=C(Nc1ccc(S(=O)(=O)NC2=NC3C=CC=CC3N=C2)cc1)c1cc([N+](=O)[O-])ccc1Cl (stereo not drawn) [compound 138] | 100 | 99 |
| 225 to 229 | O=C(Nc1ccc2c(c1)CCC2)c1cc([N+](=O)[O-])ccc1Cl [compound 139] | 50 | 89 |
| 242 to 244 | O=C(Nc1ccc2ncsc2c1)c1cc([N+](=O)[O-])ccc1Cl [compound 140] | 100 | 100 |
| 217 to 221 | O=C(Nc1nc(-c2ccc(Cl)cc2)cs1)c1cc([N+](=O)[O-])ccc1Cl [compound 141] | 100 | 100 |
| 140 to 147 | O=C(Nc1ccc(S(=O)(=O)Nc2nccs2)cc1)c1cc([N+](=O)[O-])ccc1Cl [compound 142] | 99 | 95 |
| 221 to 227 | O=C(Nc1nc2ccccc2s1)c1cc([N+](=O)[O-])ccc1Cl [compound 143] | 100 | 97 |
| 116 | O=C(Nc1ccc(=O)n(-c2ncc(C(F)(F)F)cc2Cl)c1)c1cc([N+](=O)[O-])ccc1Cl [compound 144] | 100 | 99 |
| 165 to 172 | Cc1ccc(S(=O)(=O)Nc2ccc(NC(=O)c3cc([N+](=O)[O-])ccc3Cl)cc2)cc1 [compound 145] | 100 | 100 |
| 235 to 237 | O=C(NS(=O)(=O)c1ccc(NC(=O)c2cc([N+](=O)[O-])ccc2Cl)cc1)c1ccccc1 [compound 146] | 43 | 62 |
| 189 to 192 | Cc1cc(NC(=O)c2cc([N+](=O)[O-])ccc2Cl)ccc1Nc1ncc(C(F)(F)F)cc1Cl [compound 148] | 81 | 94 |
